Like-named read-outs stand apart in the source and are kept apart here.
What was measured:
[1] = Plasma PK after single oral dose of AT-752, rats; assay type: in vivo, SD rats; conditions: Rat, single oral AT-752 300 mg/kg, plasma
Procedure: Male SD rats were administered 300 mg/kg Compound 2 (AT-752). Blood samples were collected up to 24 hrs. post dose, plasma separated and analyzed for Compound 1 (AT-281), Compound 3 (AT-551), and Compound 6 (AT-273) by LC-MS/MS. Data are express as mean+/−SD (n=3-5/time point). The x-axis is time post the dose measured in hours and the y-axis is the plasma concentration of the metabolites measured in nanomoles/mL). The experimental procedure is provided in Example 14.
Male naïve SD rats (Beijing Vital River Laboratory Animals Co. Ltd., China) were administered a dose of AT-752 at 300 mg/kg in 40% PEG400, 10% solutol HS15, 50% 100 mM citrate buffer, pH 4.5 (v/v) by oral gavage. Blood samples (n=4) were collected at 1, 2, 4, 8, 12 and 24 h post-dose, plasma separated and stored at −70° C. […] For PBMCs, nine male naïve SD rats were administered a dose of Compound 2 (AT-752) (at a Compound 1 (AT-281) equivalent dose of 300 mg/kg) by oral gavage.
(§1) Pharmacokinetic measurements for FIGS. 11, 12, 13, 14, and 15 were analyzed using LC-MS/MS according to the protocol described herein. Plasma samples were prepared for MS analysis by adding internal standards and extracting with 20 volumes chilled ACN. After vortex (800 rpm for 10 min) and centrifugation (4,000 rpm, 15 min, 4° C.), the supernatants (25 μL) were diluted with an equal volume of H2O, mixed and spun again. After adding internal standards, the PBMC samples (10^6 cells) were lyzed with 300 μL MeOH/H2O (70:30, v/v) and 40 mM dibutylammonium acetate (DBAA), mixed by vortex and centrifuged (12,000 rpm, 15 min, 4° C.). Aliquots of the supernatants (35 μL) were dried under nitrogen and reconstituted in H2O, then mixed and spun again. […] A binary nonlinear gradient with mobile phases A (0.1% formic acid in water) and B (0.1% formic acid in ACN) were used to elute samples at 0.8 mL/min, with a run time of 5 min. […] A binary nonlinear gradient with mobile phases A (0.001% NHr H2O, 0.18 mM DBAA in H2O) and B (10 mM N,N-dimethyl-hexylamine, 3 mM NH4OAc in ACN/H2O (50.50, v/v)) were used to elute samples at 0.5 mL/min, with a run time of 3 min. Standards in 50% MeOH were used for calibration. […] Internal standards (ISS) as described previously (Good et al., Preclinical evaluation of AT-527, a novel guanosine nucleotide prodrug with potent, pan-genotypic activity against hepatitis C virus. PLos One 15:e02271045) were used to correct for variations in recovery.
(§2) Data analysis of the pharmacokinetic data generated according to Example 21 and presented in FIGS. 11, 12, 13, 14, and 15 was analyzed according to the procedure described herein. Plasma concentrations of Compound 1 (AT-281), Compound 3 (AT-551) and Compound 6 (AT-273) were subjected to non-compartmental pharmacokinetic analysis using Phoenix WinNonlin software (version 6.3 or above, Pharsight, Mountain View, CA). The linear/log trapezoidal rule was applied in obtaining the PK parameters.

[2] = steady-state, human plasma; for AUCtau / Cmax: mean±SD; for Tmax: median (minimum-maximum)
[3] = Plasma PK after single oral dose of AT-752, mice; conditions: Mouse, single oral AT-752 420 mg/kg
[4] = Plasma PK after single oral dose of AT-752, monkeys; assay type: in vivo, cynomolgus monkeys; conditions: Monkey, single oral AT-752 300 mg/kg, plasma
Procedure: Male cynomolgus monkeys were administered 300 mg/kg Compound 2 (AT-752). Blood samples were collected up to 24 hrs. post dose, plasma separated and analyzed for Compound 1 (AT-281), Compound 3 (AT-551), and Compound 6 (AT-273) by LC-MS/MS. Data are express as mean+/−SD (n=3-5/time point). The x-axis is time post the dose measured in hours and the y-axis is the plasma concentration of the metabolites measured in nanomoles/mL). The experimental procedure is provided in Example 14.
Male non-naïve cynomolgus monkeys (Hainan Jingang Laboratory Animal Co. Ltd., China), at least 2 kg body weight, were individually housed during the study in stainless steel mesh cages, provided ad libitum access to RO water, fed twice daily (except on the day of dosing when they were fed once) with ˜60 g Certified Monkey Diet each feed (Beijing Vital Keao Feed Co., Ltd., Beijing, China) and given daily treats of fresh fruit. They (n=5) were administered a dose of Compound 2 (AT-752) at 300 mg/kg in 40% PEG400, 10% solutol HS15, 50% 100 mM citrate buffer, pH 4.5 (v/v) by oral gavage, and blood samples (˜0.5 mL) were collected at 1, 2, 4, 8, 12 and 24 h post dose. Plasma was separated at each time point for pharmacokinetics, and stored at −70° C. […] Separately, three monkeys were given an oral dose of Compound 2 (AT-752) as powder in capsules at 60 mg/kg ([…] (AT-281) equivalent dose of 55 mg/kg), and blood samples collected at 12, 24 and 48 h post dose.
as §1, §2

[5] = Pharmacokinetic study in SAD cohorts; assay type: in vivo, human; conditions: for dose proportionality of plasma exposure: dose range 250 to 1500 mg; for Urine Elimination: following single oral administration of Compound 2 at 250 to 1500 mg; for AUCInf / Cmax / T1/2 / Tmax: human plasma; for CLR: human
Procedure: as §1, §2

[6] = single oral Compound 2 250 mg, fasting
[7] = single oral Compound 2 500 mg, fasting
[8] = single oral Compound 2 500 mg, fed
[9] = single oral Compound 2 500 mg, fed (high-fat/high-calorie meal)
[10] = single oral Compound 2 1000 mg, South/Southeast/East Asian origin
[11] = single oral Compound 2 1000 mg, fasting
[12] = single oral Compound 2 1000 mg, patients of South/Southeast/East Asian origin
[13] = single oral Compound 2 1500 mg, fasting

## CNc1nc(N)nc2c1ncn2C1OC(COP(=O)(O)NC(C)C(=O)O)C(O)C1(C)F (stereo not drawn) [Compound 3]
[1]
  AUC0-24 h: 56.5 µM·h
  Cmax: 16.5 ± 10.8 µM
[2]; Compound 2 750 mg BID
  AUCtau: 1330 ± 503 ng·h/mL
  Cmax: 365 ± 159 ng/mL
  Tmax: 1.0 (0.8-2.0) h
[2]; Compound 2 750 mg TID
  AUCtau: 944 ± 173 ng·h/mL
  Cmax: 245 ± 30 ng/mL
  Tmax: 1.5 (0.8-2.0) h
[2]; Compound 2 1000 mg QD
  AUCtau: 1650 ± 498 ng·h/mL
  Cmax: 392 ± 143 ng/mL
  Tmax: 1.0 (0.8-2.0) h
[3]
  AUC0-24 h: 58.7 ± 13.3 µM·h
  Cmax: 45.1 ± 12 µM
  Tmax: 0.5 ± 0.0 h
[4]
  AUC0-24 h: 9.7 ± 2.2 µM·h
  Cmax: 2 ± 0.8 µM
  Tmax: 2.0 ± 0.0 h
[5]
  dose proportionality of plasma exposure: greater than dose-proportional manner
  Urine Elimination: < 1%
[5]; [6]
  AUCInf: 302 ± 71 ng·h/mL
  Cmax: 89 ± 36 ng/mL
  T1/2: 2.1 ± 0.3 h
  Tmax: 1.0 (0.8-2.0) h
  CLR: 2.0 ± 0.3 L/h
[5]; [7]
  AUCInf: 898 ± 437 ng·h/mL
  Cmax: 231 ± 155 ng/mL
  T1/2: 2.4 ± 0.5 h
  Tmax: 1.0 (0.8-8.0) h
  CLR: 2.1 ± 0.6 L/h
[5]; [8]
  AUCInf: 737 ± 289 ng·h/mL
  T1/2: 2.3 ± 0.4 h
  Tmax: 3.1 (3.0-4.0) h
  CLR: 2.1 ± 0.4 L/h
[5]; [9]
  Cmax: 154 ± 84 ng/mL
[5]; [10]
  AUCInf: 3320 ± 1630 ng·h/mL
  T1/2: 2.0 ± 0.3 h
  Tmax: 0.9 (0.5-2.0) h
  CLR: 2.1 ± 0.6 L/h
[5]; [11]
  AUCInf: 2330 ± 1060 ng·h/mL
  Cmax: 695 ± 468 ng/mL
  T1/2: 2.2 ± 0.4 h
  Tmax: 0.8 (0.5-2.0) h
  CLR: 2.1 ± 0.6 L/h
[5]; [12]
  Cmax: 895 ± 418 ng/mL
[5]; [13]
  AUCInf: 4100 ± 494 ng·h/mL
  Cmax: 1080 ± 217 ng/mL
  T1/2: 3.2 ± 1.2 h
  Tmax: 1.5 (0.8-2.0) h
  CLR: 1.9 ± 0.4 L/h

## CNc1nc(N)nc2c1ncn2[C@@H]1O[C@H](CO)[C@@H](O)[C@@]1(C)F [Compound 7]
[2]; Compound 2 750 mg BID
  AUCtau: 7960 ± 2970 ng·h/mL
  Cmax: 1470 ± 404 ng/mL
  Tmax: 1.5 (0.8-2.2) h
[2]; Compound 2 750 mg TID
  AUCtau: 22300 ± 14100 ng·h/mL
  Cmax: 1600 ± 640 ng/mL
  Tmax: 1.5 (1.0-2.0) h
[2]; Compound 2 1000 mg QD
  AUCtau: 8290 ± 2290 ng·h/mL
  Cmax: 1200 ± 284 ng/mL
  Tmax: 0.9 (0.8-2.0) h
[5]
  dose proportionality of plasma exposure: dose-proportional manner
  Urine Elimination: 10.7-17.9%
[5]; [6]
  AUCInf: 2890 ± 680 ng·h/mL
  Cmax: 446 ± 121 ng/mL
  T1/2: 16.9 ± 8.6 h
  Tmax: 2.1 (2.0-3.0) h
  CLR: 13.7 ± 1.6 L/h
[5]; [7]
  AUCInf: 5480 ± 1630 ng·h/mL
  Cmax: 765 ± 307 ng/mL
  T1/2: 15.1 ± 6.2 h
  Tmax: 1.0 (0.8-4.0) h
  CLR: 13.6 ± 5.4 L/h
[5]; [8]
  AUCInf: 4310 ± 1400 ng·h/mL
  T1/2: 11.2 ± 4.9 h
  Tmax: 4.0 (3.0-6.1) h
  CLR: 12.5 ± 2.8 L/h
[5]; [9]
  Cmax: 488 ± 324 ng/mL
[5]; [10]
  AUCInf: 14000 ± 4210 ng·h/mL
  T1/2: 14.7 ± 10.1 h
  Tmax: 1.5 (0.8-2.0) h
  CLR: 13.4 ± 2.5 L/h
[5]; [11]
  AUCInf: 10300 ± 3070 ng·h/mL
  Cmax: 1640 ± 474 ng/mL
  T1/2: 12.4 ± 10.7 h
  Tmax: 0.9 (0.8-3.0) h
  CLR: 14.2 ± 3.8 L/h
[5]; [12]
  Cmax: 2010 ± 489 ng/mL
[5]; [13]
  AUCInf: 16700 ± 3780 ng·h/mL
  Cmax: 2030 ± 600 ng/mL
  T1/2: 12.5 ± 3.8 h
  Tmax: 2.0 (1.0-2.0) h
  CLR: 15.0 ± 2.4 L/h

Source: patent US20250082656A1, “DOSAGE REGIMENS FOR TREATMENT OF DENGUE INFECTION” (Atea Pharmaceuticals, Inc., priority 2022, published 2025)
